Measured values published in patent publication US20240317755A1, “HETEROCYCLIC COMPOUND, AND INTERMEDIATE THEREOF, PREPARATION METHOD THEREFOR AND USE THEREOF” (WUHAN LL SCIENCE AND TECHNOLOGY DEVELOPMENT CO., LTD., priority 2021, published 2024).
Read-outs that look alike come from different tables or passages of the source.

Assay: Tissue distribution in CD-1 mice after single intragastric administration
Type: in vivo
Settings: mouse, oral, male CD-1 mice, 10 mg/kg intragastric
Experimental: Mice: CD-1 mice, SPF grade, 9, male, weighting 18 to 22 g (source: SPF (Beijing) Biotechnology Co., Ltd., certificate number: 110324200103036532).
Dispensing: After accurately weighing compound L015, 20% solutol of the required volume was added thereto first, sonicated for 20 min and stirred for 1.5 hours until no visible particles were visible to the naked eye, and the middle layer of the drug solution was taken for drug administration. 2 parts of the top, middle, and bottom layers of the suspension were taken, and 2 parts of the middle layer of the clarified solution were taken, and 100 μL of each part was accurately aspirated into a 1.5 mL EP tube. Samples were taken before administration, and after sampling, the samples were stored in a −80° C. refrigerator and sent together with the plasma samples for bioanalytical test.
Animals were randomly divided into 3 groups. Compound L015 was administered at 3 different time points, with 3 animals per group, all males. All mice were given a single intragastric administration with an administration volume of 10 mL/kg. The specific grouping and administration information is as follows:
After the administration was completed, the animals in each group were anesthetized by intraperitoneal injection of 1% pentobarbital sodium (the administration volume was 0.06 mL/10 g) 5 minutes before their respective time points, and about 0.3 mL of blood was collected in an anticoagulant EP tube (containing 4 μL of EDTA-K2, 375 mg/mL), which was gently inverted for 3 times and stored in an ice box (no more than 30 minutes), centrifuged at 4° C. for 10 minutes with 3500×g. The supernatant was transferred to a labeled EP tube for bioanalytical test. If it could not be analyzed the same day, it was stored at −80° C. until further testing (be careful not to perform multiple freezing/thawing processes).
After the blood was taken, the abdominal cavity was quickly opened, and the abdominal aorta and vein of the […] were cut. After the blood was drained, the heart, liver, spleen, lung, kidney, and brain of the rat were taken, respectively. After the tissue was taken, the tissue was immediately rinsed with normal saline to remove any residual blood on the surface, blotted dry with filter paper, and the connective tissue was removed and weighed. The homogenization tube was placed in an ice water bath, and the tissue sample homogenate was thoroughly homogenized with a high-speed homogenizer and sent for bioanalytical test. If it could not be analyzed the same day, it was stored at −80° C. until further testing (be careful not to perform multiple thawing/freezing processes).
1.5 Sample analysis method 1.5.1 Experimental instruments: • High performance liquid chromatography pump (pump): Exion LC AD Pump, Sciex Company • Auto sampler: Exion LC AD Autosampler, Sciex Company • Column oven: Exion LC AD Column Oven, Sciex Company • Mass spectrometer: AB Sciex Qtrap 4500 • High-speed refrigerated centrifuge (centrifuge): Thermo Fisher, ST16R, GG1206085-093 • Analytical balance (electronic balance): Mettler Toledo, MS-105D, GG1206363 • Micro vortex (vortex): Shanghai Huxi Analysis Instrument Factory, WH-2, GG1206487 1.5.2 Experimental materials: mouse plasma and tissue
Sample pretreatment process: 3 μL of working solution was taken, and 57 μL of blank matrix was added into a 1.5 mL centrifuge tube, and then 240 μL of acetonitrile solution containing 200 ng/mL tolbutamide and labetalol mixed with 0.1% formic acid was added to precipitate protein. The mixture was vortexed and mixed for 1 minute, and then centrifuged in a 4° C. centrifuge at 13000 rpm for 15 minutes. 100 μL of supernatant was taken and added to another 96 deep well plate, and 100 μL of methanol:water (1:3, v:v) solution containing 0.1% FA was added. The mixture was mixed with shaking for 1 min, and centrifuged at 3500 rpm for 5 min in a 96-well plate centrifuge and the sample was injected directly. […]

concentration at 0.167 h (brain, 20% solutol, read-out: concentration in brain): 706 ng/g
concentration at 1 h (brain, 20% solutol, 1 hour): 161 ng/g
concentration at 10 h (brain, 20% solutol, 10 hours): 25.9 ng/g
Kp at 0.167 h (brain, read-out: brain, times of the plasma concentration): 0.05
Kp at 1 h (brain, 1 hour, read-out: brain, times of the plasma concentration): 0.19
Kp at 10 h (brain, 10 hours, read-out: brain, times of the plasma concentration): 0.09
concentration at 0.167 h (kidney, 20% solutol, read-out: concentration in kidney): 1470 ng/g
Kp at 0.167 h (kidney, read-out: kidney, times of the plasma concentration): 2.5
Kp at 1 h (kidney, 1 hour, read-out: kidney, times of the plasma concentration): 2.51
Kp at 10 h (kidney, 10 hours, read-out: kidney, times of the plasma concentration): 1.5
concentration at 0.167 h (liver, 20% solutol, read-out: concentration in liver): 3260 ng/g
Kp at 0.167 h (liver, read-out: liver, times of the plasma concentration): 5.55
Kp at 1 h (liver, 1 hour, read-out: liver, times of the plasma concentration): 4.53
Kp at 10 h (liver, 10 hours, read-out: liver, times of the plasma concentration): 5.05
SMILES: O=C(c1ccc(F)cc1C(F)(F)F)c1cnc2n1CCN(c1cn[nH]c(=O)c1Cl)C2 [Compound 1-6, 4-chloro-5-(3-(4-fluoro-2-(trifluoromethyl)benzoyl)-5,6-dihydroimidazo[1,2-a]pyrazin-7(8H)-yl)pyridazin-3(2H)-one]
